In brackets after ≈: the same amount, converted by molar mass. Like-named read-outs stand apart in the source and are kept apart here.
Columns and labels:
Format in all cases: cell-based
[1] = test system: Acinetobacter baumannii SR24396; assay: in vitro antimicrobial activity, MIC by agar plate incubation (Japan Society for Chemotherapy method); conditions: 1000 cfu/spot, sensitive disc medium, read-out: Minimum Inhibitory Concentration (MIC)
Description: (§1) Compound (I) of the subject invention has been investigated for in vitro antimicrobial activity thereof.
(§2) (Microbe/Strain Species Nos. 1-4):
(§3) Measurement of Minimum Inhibitory Concentration (MIC: microgram/ml) was conducted according to the standard method of the Japan Society for Chemotherapy, and the amount of bacteria for inoculation was 1000 cfu/spot, and sensitive disc medium was used as the test medium, and conducted using agar plate incubation.
(§4) In the tables, the unit of the values of inhibitory activity is microgram/ml (μg/ml)

[2] = test system: Klebsiella pneumoniae ATCC 700603; assay: as above; conditions: ATCC700603, SHV-18, ESBL producing strain, 1000 cfu/spot, sensitive disc medium, read-out: Minimum Inhibitory Concentration (MIC)
Description: as §1, §2, §3, §4

[3] = test system: Pseudomonas aeruginosa SR24; assay: as above; conditions: no enzyme, Ceftazidime sensitive strain, 1000 cfu/spot, sensitive disc medium, read-out: Minimum Inhibitory Concentration (MIC)
Description: as §1, §2, §3, §4

[4] = test system: Pseudomonas aeruginosa SR27060; assay: as above; conditions: IMP-1, MBL producing strain (carbapenem resistant strain), 1000 cfu/spot, sensitive disc medium, read-out: Minimum Inhibitory Concentration (MIC)
Description: as §1, §2, §3, §4

[5] = test system: Stenotrohomonas maltophilia SR21970; assay: in vitro antimicrobial activity, MIC by agar plate incubation (CLSI method, Mueller-Hinton agar); conditions: L-1, MBL producing strain (carbapenem resistant strain), 10000 cfu/spot, read-out: Minimum Inhibitory Concentration (MIC)
Description: as §1
(Microbe/Strain Species Nos. 5):
Measurement of Minimum Inhibitory Concentration (MIC, microgram/ml) was conducted according to the CLSI (Clinical and Laboratory Standards Institute) and the amount of bacteria for inoculation was 10000 cfu/spot, and Mueller-Hinton agar medium was used as the test medium, and conducted using agar plate incubation.
as §4

[6] = SR24396, Acinetobacter baumannii SR24395 (Table 10)

Structure (SMILES) | MIC [1, 6] | MIC [2] | MIC [3] | MIC [4] | MIC [5] | MIC ([1]; Acinetobacter baumannii SR24396 (Table 11))
CC(C)(O/N=C(\C(=O)N[C@@H]1C(=O)N2C(C(=O)O)=C(C[N+]34CCC(CNC(=O)c5cc(=O)c(O)c[nH]5)(CC3)CC4)CS[C@H]12)c1csc(N)n1)C(=O)[O-] [Compound I-2] | 1 mg/L (≈ 1.34 µM) | 1 mg/L (≈ 1.34 µM) | 0.125 mg/L (≈ 0.168 µM) | 1 mg/L (≈ 1.34 µM) |  | 
CC(C)(O/N=C(\C(=O)N[C@@H]1C(=O)N2C(C(=O)[O-])=C(C[N+]3(CCNC(=O)c4cc(=O)c(O)c[nH]4)CCCC3)CS[C@H]12)c1csc(N)n1)C(=O)[O][Na] [Compound I-4] | 0.5 mg/L | 0.25 mg/L | 0.063 mg/L | 0.25 mg/L | 1 mg/L | 
Nc1nc(/C(=N/O[C@@H](CC(=O)O)C(=O)[O-])C(=O)N[C@@H]2C(=O)N3C(C(=O)O)=C(C[N+]45CCC[C@H]4CN(C(=O)c4cc(=O)c(O)c[nH]4)CC5)CS[C@H]23)cs1 (stereo partly shown) [Compound I-11] |  | 0.5 mg/L (≈ 0.657 µM) | 0.25 mg/L (≈ 0.329 µM) | 1 mg/L (≈ 1.31 µM) | 1 mg/L (≈ 1.31 µM) | 0.25 mg/L (≈ 0.329 µM)
CC(C)(O/N=C(\C(=O)N[C@@H]1C(=O)N2C(C(=O)O)=C(C[N+]3(CCNC(=O)c4cc(=O)c(O)cn4O)CCCC3)CS[C@H]12)c1csc(N)n1)C(=O)[O-] [Compound I-6] | 0.25 mg/L (≈ 0.34 µM) | 0.25 mg/L (≈ 0.34 µM) | 0.063 mg/L (≈ 0.0857 µM) | 0.25 mg/L (≈ 0.34 µM) | 1 mg/L (≈ 1.36 µM) | 
